# What was measured:
# [1] = cited from earlier work; for oral absorption: taken orally
# [2] = system: colonic cancer cells HCT116; assay: HCT116 colonic cancer xenograft in nude mice, two weeks of drug delivery (Embodiment 1): cancer volume and weight; format: in vivo; conditions: HCT116, ig, within 2 weeks, vs solvent group, FIG. 1-3
# Description: Nude mice were transplanted with colonic cancer cells HCT116; after the cancer volumes reached 200-300 mm3, the mice were randomly grouped, 8 pieces in each group; the mice were fed with drugs for two weeks. The drug delivery solution can be seen in Table 2 below: […]
# [3] = cited from earlier work
# [4] = system: dihydropyrimidine dehydrogenase (DPD); conditions: cited from earlier work
Structure (SMILES),t1/2 ([1]; in vivo),oral absorption [1],anti-cancer activities when individually used [3],also measured
"O=c1[nH]cc(F)c(=O)[nH]1 [5-Fluorouracil (5-FU), 5-Fluorouracil]","absorption t1/210~20 min,",Incomplete oral,,
"CCCCCOC(=O)Nc1nc(=O)n([C@@H]2O[C@H](C)[C@@H](O)[C@H]2O)cc1F [Capecitabine, 5′-deoxy-5-fluoro-N[(pentyloxy)carbonyl]cytidine]",orally. t1/2 0.5~1.0 h.,Quickly absorbed by,,volume and weight of the cancer [2]: failed to reduce the volume and weight of the cancer; 5-FU concentration in the cancer tissues versus that in the blood ([1]; after the drug is taken orally): is 100 times higher
"Oc1cc(O)c(Cl)cn1 [Gimeracil (CDHP), 2,4-dyhydroxy-5-chloro pyridine]",,,no obvious anti-cancer activities,5-FU degradation inhibition effect relative to uracil [4]: 180 times that of the uracil; DPD inhibiting effect relative to uracil ([4]; reversible inhibitor of the DPD): 180 times that of uracil
"O=C(O)c1nc(=O)[nH]c(=O)[nH]1 [Oteracil potassium (OXO), Oteracil potassium]",,,no obvious anti-cancer activities,
"O=c1[nH]c(=O)n(C2CCCO2)cc1F (centres unmarked) [Tegafur (FT-207), 1-(etrahydro-2-furyl)-5-fluoro-2,4(1H,3H)-pyrimidinedione]",absorption t1/25 h.,Good oral,,lipid solubility ([1]; in vivo): tract. It has higher; discharged in the original form along with the urine ([1]; within 24 h after drug delivery): 23% is discharged
